Results on three molecules are retold here after patent publication US20240139207A1, “METHODS FOR TREATING PULMONARY HYPERTENSION” (United Therapeutics Corporation, priority 2022, published 2024).

The subject of series [1] is patients with pulmonary arterial hypertension. As to the kind of experiment: Phase 4 open-label 16-week study: safety and tolerability, prostanoid-related adverse events. The series is classed as in vivo, human. As to the method: Safety and tolerability were assessed at each scheduled visit and in between visits as needed throughout the duration of the study. Tolerability measures of interest included incidence of all adverse events (AEs) and prostanoid-related AEs including headache, diarrhea, nausea, vomiting, flushing, jaw pain and extremity pain. […] Prostanoid-related events captured by the survey were only recorded if the event was unusual with respect to intensity, frequency, or duration compared to symptoms in the patient's medical history. Patient compliance with taking oral treprostinil was assessed by performing study drug accountability at each scheduled study visit. The primary endpoint and all efficacy endpoints were analyzed using the per-protocol population, which included all patients without major protocol deviations unless otherwise specified. The exact (Clopper-Pearson) 95% confidence interval was calculated for the primary endpoint. […] For continuous variables, descriptive statistics are reported as median (interquartile range, IQR or range) or mean (±standard deviation, SD). For categorical variables, descriptive statistics include frequency and percentage of patients in each category. Changes from baseline to Week 16 for continuous variables were analyzed using Wilcoxon signed rank test. The change in FC from baseline to Week 16 was analyzed using McNemar's test. The p-values from these tests were derived for descriptive purposes and not part of a formal hypothesis testing framework.

Series [2] shares this test system. As to the kind of experiment: Phase 4 open-label 16-week study: clinical parameters, risk stratification, patient-reported outcomes. The class given is in vivo, human. The conditions noted are these: transition visit. The source says: The secondary endpoints of this study included measurements in: changes in prostanoid adverse events (AEs), echocardiograms, change in 6-minute walk distance (6MWD), change in Borg dyspnea score, change in World Health Organization (WHO) functional class (FC), change in serum N-terminal pro-brain natriuretic peptide (NT-proBNP) levels, impact of pulmonary hypertension on a person's life (health-related quality of life), and treatment satisfaction. Specifically, this study sought to measure the percentage of subjects that improved in each of the following individual four clinical parameters at Week 16 (6MWD, NT-proBNP, WHO FC, right atrial area) to a lower risk stratum, as defined by the 2015 ESC/ERS guidelines (Gailè et al., DOI: 10.1183/13993003.01032-2015), compared to baseline measurements. An additional endpoint was determining the percentage of subjects that meet each of the following four individual clinical parameters at Week 16 in the low risk category, as defined by 2015 ESC/ERS guidelines: 6MWD>440 meters, […].
(§1) Based on the 2015 ESC/ERS Guidelines, specific hemodynamic inclusion criteria included a mean pulmonary arterial pressure ≥25 mmHg, pulmonary artery wedge pressure or left ventricular end-diastolic pressure ≤15 mmHg, and pulmonary vascular resistance >3 Wood units, in the absence of unrepaired congenital heart disease. Other key inclusion criteria were World Health Organization functional class (FC) II or III, 6-minute walk distance (6MWD)≥250 m, and a REVEAL 2.0 risk score ≤9 (Benza et al. 2021, DOI: https://doi.org/10.1016/j.chest.2020.08.2069). Patients could be receiving up to two oral PAH background therapies if taken at a stable dose for ≥30 days prior to baseline. As this study focused on the addition of a new therapy rather than the replacement of one therapy by another therapy, participants were eligible regardless of the number of pulmonary arterial hypertension background therapies (0, 1, or 2) they were receiving at baseline. […] Baseline assessments were collected up to 14 days prior to initiation of parenteral treprostinil, and included hemodynamics via echocardiogram and RHC, FC, N-terminal-pro brain natriuretic peptide (NT-proBNP), 6MWD, and medication history. Of note, historical RHC data could be used for baseline assessments if performed up to 180 days prior to initiating parenteral treprostinil. Echocardiograms were uploaded and stored in a central repository and evaluated by an independent central reader in accordance with the American Society of Echocardiography Guidelines (Bossone et al., DOI: 10.1016/j.echo.2012.10.009).
(§2) Once patients reached at least 20 ng/kg/min and were deemed suitable for transition based on physician assessment, they were transitioned at Week 2,4, or 8 to oral treprostinil via cross-titration in an inpatient or outpatient setting over 1-21 days. All participants still receiving parenteral treprostinil at Week 8 began transitioning to oral treprostinil regardless of their parenteral treprostinil dose unless deemed unsuitable for transition by their clinician. Before transition, 6MWD, WHO FC, NT-proBNP, and echocardiography parameters were assessed.
The primary endpoint was the percentage of patients who achieved an oral treprostinil TDD of at least 12 mg (0.171 mg/kg for patients <70 kg) at Week 16. Secondary endpoints included change from baseline to Week 16 in risk strata and clinical parameters, where baseline values were collected within 14 days prior to parenteral treprostinil initiation. Changes in risk strata for FC, NT-proBNP, 6MWD, and right atrial (RA) area were assessed using the 2015 ESC/ERS Guidelines, which categorizes risk for each determinant as low, intermediate, and high (Galiè et al., 2016). Clinical parameters of interest included FC, NT-proBNP, 6MWD, echocardiography parameters, REVEAL Lite 2 score (Benza et al., 2021), and Borg Dyspnea Score (Borg, 1982, DOI: https://doi.org/10.1249/00005768-198205000-00012). […]

Series [3] shares this test system. As to the kind of experiment: Phase 4 open-label 16-week study: echocardiography parameters. The class given is in vivo, human. The conditions noted are these: transition visit; per-protocol population.
Excerpt: as §1, §2
The primary endpoint was the percentage of patients who achieved an oral treprostinil TDD of at least 12 mg (0.171 mg/kg for patients <70 kg) at Week 16. Secondary endpoints included change from baseline to Week 16 in risk strata and clinical parameters, where baseline values were collected within 14 days prior to parenteral treprostinil initiation. Changes in risk strata for FC, NT-proBNP, 6MWD, and right atrial (RA) area were assessed using the 2015 ESC/ERS Guidelines, which categorizes risk for each determinant as low, intermediate, and high (Galiè et al., 2016). Clinical parameters of interest included FC, NT-proBNP, 6MWD, echocardiography parameters, REVEAL Lite 2 score (Benza et al., 2021), and Borg Dyspnea Score (Borg, 1982, DOI: https://doi.org/10.1249/00005768-198205000-00012). The REVEAL Lite 2 score includes clinical parameters to determine the risk status (low, intermediate, and high) for pulmonary arterial hypertension. The Borg Dyspnea Score ranges from 0 to 10, where 0 indicates no dyspnea and 10 indicates very, very heavy (almost maximal) dyspnea. Patient-reported outcomes were assessed using the emPHasis-10 quality of life questionnaire (Yorke et al., 2014, DOI: 10.1183/09031936.00127113) and the Pulmonary Arterial Hypertension Symptom Scale (PAHSS) (Matura et al., 2015, DOI: https://doi.org/10.1016/j.apnr.2014.04.001). The Treatment Satisfaction Questionnaire for Medication (TSQM) (Atkinson et al., 2004, DOI: https://doi.org/10.1186/1477-7525-2-12) was used to measure patient satisfaction with their medication over the last two to three weeks; higher scores indicate greater satisfaction. EmPHasis-10 scores can range from 0 to 50, where lower scores indicate better quality of life. […]

Series [4] deals with Pulmonary arterial hypertension patients. The conditions noted are these: cited from earlier work.
Setting [5] is: Parenteral Treprostinil Phase (Before Transition), n = 35.
The mark [6] stands for this setting: per-protocol population (n=29), while on the labelled form.

In the case of `CCCCC[C@H](O)CC[C@@H]1[C@H]2Cc3cccc(OCC(=O)O)c3C[C@H]2C[C@H]1O` [treprostinil], in series [1] (Transition Phase, n = 33), the “Diarrhea, patients with AE” value is reported as 17 (52) n (%); the “Extremity pain, patients with AE” value is 10 (30) n (%); the “Flushing, patients with AE” value is recorded as 10 (30) n (%); the “Headache, patients with AE” value is listed as 19 (58) n (%). For the same molecule, in series [1] (Transition Phase, n = 33), the “Jaw pain, patients with AE” value was 15 (46) n (%); the “Nausea, patients with AE” value is 21 (64) n (%); the “Vomiting, patients with AE” value is recorded as 5 (15) n (%).
On to `CCCCC[C@H](O)CC[C@@H]1[C@H]2Cc3cccc(OCC(=O)O)c3C[C@H]2C[C@H]1O` [parenteral treprostinil, treprostinil], for which, in series [1] (setting [5]), the “Diarrhea, patients with AE” value is given as 18 (51) n (%); the “Extremity pain, patients with AE” value is 12 (34) n (%); the “Flushing, patients with AE” value is listed as 10 (29) n (%); the “Headache, patients with AE” value is given as 28 (80) n (%). In addition, in series [1] (setting [5]), the “Jaw pain, patients with AE” value is on record as 16 (46) n (%); the “Nausea, patients with AE” value is on record as 24 (69) n (%); the “Vomiting, patients with AE” value is 13 (37) n (%). Besides, the “most bothersome AE” value in series [1] (during the phase of the labelled form) was “extremity pain, followed by jaw pain, headache, and diarrhea”. Besides, in series [1] (patients who initiated parenteral treprostinil), the “patients reporting at least one treatment-emergent AE” value is listed as “All patients”. Also, in series [1] (setting [6]), the “participants who received acetaminophen for prostacyclin-related headache” value was 55%, the “participants who received loperamide for prostacyclin-related diarrhea” value amounted to 34% and the “participants who received ondansetron for prostacyclin-related nausea/vomiting” value worked out at 69%. Also, in series [2] (29 patients), the “patients who improved WHO FC” value is 76%, the “patients who maintained WHO FC” value is reported as 21% and the “patients who worsened WHO FC” value is 3%. In series [2] (per-protocol population), the “6MWD, median (IQR)” value was 377 (318, 453) m and the “NT-proBNP, median (IQR)” value is given as 186 (110, 724) ng/L. Also, in series [3], the “TAPSE, median (IQR)” value is on record as 18.1 (14.8, 20.9) mm and the “right atrial area, median (IQR)” value is given as 19.3 (16.0, 26.7) cm2.
Consider `O=C(O)COC[C@H]1CC[C@H](COC(=O)N(c2ccccc2)c2ccc(Cl)cc2)CC1` [ralinepag], for which the “outcomes, including pulmonary vascular resistance and 6-minute walk distances, versus placebo” value in series [4] was “better outcomes”.
